{"source": "paper PMC6848146", "about": "“Binding and structural analyses of potent inhibitors of the human Ca^2+/calmodulin dependent protein kinase kinase 2 (CAMKK2) identified from a collection of commercially-available kinase inhibitors” (Scientific Reports, 2019)", "key": {"[1]": {"biological_target": "T1, CAMKK2-FL (Homo sapiens, UniProt Q96RR4)", "T1 construct": "an enzymatic assay using the full-length protein (CAMKK2-FL); purchased Eurofins Discovery (MO, USA), assay service", "test": "Radiometric enzymatic assay (Eurofins Discovery), Ca2+/Calmodulin present", "type": "biochemical", "conditions": "for IC50: 90 µM ATP, single measurement"}, "[2]": {"biological_target": "T2, CAMKK1-FL (Homo sapiens, UniProt Q8N5S9)", "T2 construct": "purchased Eurofins Discovery (MO, USA), assay service", "test": "Radiometric enzymatic assay (Eurofins Discovery), Ca2+/Calmodulin present", "type": "biochemical", "conditions": "200 µM ATP; single measurement", "description": "All compounds employed in this study were initially developed to target other human protein kinases, and some are known to be quite promiscuous[18],[21].\nReaction conditions for assays using CAMKK1-FL were: 8 mM MOPS pH 7.0, 0.2 mM EDTA, 0.33 mg/mL MBP (myelin basic protein), 0.5 mM calcium chloride, 0.016 mg/ml calmodulin, 10 mM magnesium acetate and [gamma-^33P-ATP] (200 µM). […] The reactions were initiated by the addition of a Mg^2+-ATP mixture. After incubation for 40 minutes at room temperature, the reaction was stopped by the addition of phosphoric acid to a final concentration of 0.5%. […] Following subtraction of the average inhibitor control well counts, results were expressed as a percentage of the mean kinase activity in the positive control sample."}, "[3]": {"system": "CAMKK1", "set-up": "method as in Anastassiadis et al. (2011)", "conditions": "0.5 µM compound; ref Anastassiadis et al. (2011); cited from earlier work"}, "[4]": {"system": "CAMKK2", "set-up": "method as in Anastassiadis et al. (2011)", "conditions": "0.5 µM compound; ref Anastassiadis et al. (2011); cited from earlier work"}, "[5]": {"biological_target": "T3, CAMKK2-KD (kinase domain of CAMKK2) (Homo sapiens, UniProt Q96RR4)", "T3 construct": "the protein kinase domain (amino acids 161–449); hexahistidine (6xHis), TEV-cleavable; made in house", "T3 sequence (Q96RR4 161-449)": "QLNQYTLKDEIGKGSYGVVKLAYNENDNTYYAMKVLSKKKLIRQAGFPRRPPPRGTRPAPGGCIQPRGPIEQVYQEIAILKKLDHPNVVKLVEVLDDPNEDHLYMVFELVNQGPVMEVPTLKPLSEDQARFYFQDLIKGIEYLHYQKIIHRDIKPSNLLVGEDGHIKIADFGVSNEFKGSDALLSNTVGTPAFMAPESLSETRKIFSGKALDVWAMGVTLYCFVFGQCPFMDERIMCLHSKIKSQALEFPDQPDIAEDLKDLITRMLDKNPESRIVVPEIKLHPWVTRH", "test": "DSF thermal-shift screen, 96-well format", "type": "binding", "conditions": "96-well format; 12 µM compound, 2 µM kinase, 2.5% DMSO; single measurement; read-out: ΔTm", "description": "(§1) We employed a thermal-shift assay (Differential Scanning Fluorimetry, DSF)[19] to identify compounds that can bind to the kinase domain of CAMKK2 (CAMKK2-KD). Protein thermal denaturation curves (Fig. 1A,B) were used to calculate the denaturation midpoint temperature (Tm) for the kinase domain of CAMKK2 in the presence of ligands or vehicle only (DMSO). […] DSF screens were performed on purified CAMKK2-KD using a library of commercially available, chemically diverse, ATP-competitive, kinase inhibitors.\nSYPRO Orange dye (Invitrogen) was used in 5X as final concentration.\nPlates were sealed using optically clear films and transferred to an Mx3005p RT-PCR machine (Agilent).\n(§2) For both formats, experiments were performed in singlets."}, "[6]": {"biological_target": "CAMKK2-KD (Homo sapiens, UniProt Q96RR4)", "sequence (Q96RR4 161-449)": "as above", "test": "Isothermal titration calorimetry (reverse titration)", "conditions": "20 °C", "quoted_text": "All ITC experiments described below were performed twice.\nMeasurements were made using a MicroCal AutoITC200 (Malvern, United Kingdom). […] Small molecule inhibitors were diluted in dialysis buffer. All ITC experiments were performed using a “reverse titration” setup in which the protein (in the syringe) was titrated into the cell containing the inhibitor. Two independent ITC measurements were performed for each compound, data for individual runs were integrated separately to obtain single isotherms, which were plotted and analyzed using Sedphat[37]. […] All measurements were made at 20 °C with mixing (1,000 rpm stirring), and used 1.5 µL injections and 180 s between each injection. NITPIC, SEDPHAT and GUSSI[37] were used to analyze and generate figures for ITC data."}, "[7]": {"biological_target": "T3, CAMKK2-KD (kinase domain of CAMKK2)", "test": "DSF thermal-shift screen, 384-well format", "type": "binding", "conditions": "10 µM compound, 1 µM kinase, 0.1% DMSO, single measurement", "description": "as §1\nDSF experiments in 384-well format followed a protocol previously established at the SGC-UNICAMP and described elsewhere.\nThe compounds, previously solubilized in DMSO, were used at 10 µM final concentration and 0.1% DMSO. Plates were sealed using optically clear films and transferred to a QuantStudio 6 qPCR instrument (Applied Biosystems). […] Protein in 0.1% DMSO was used as a reference.\nas §2"}, "[8]": {"system": "six other kinases (panel of 92 protein kinases)", "set-up": "method as in PMID 17850214", "conditions": "screened against a panel of only 92 protein kinases; cited from earlier work"}, "[9]": {"conditions": "individual ITC experiment, run 1"}, "[10]": {"conditions": "individual ITC experiment, run 2"}}, "data": [{"smiles": "CC(C)[C@H](CO)Nc1nc(Nc2cc(N)cc(Cl)c2)c2ncn(C(C)C)c2n1", "note": "[Aminopurvalanol]", "values": [{"measurement": "IC50", "setting": "[1]", "result": 159, "unit": "nM"}, {"measurement": "IC50", "setting": "[2]", "result": 188, "unit": "nM"}, {"measurement": "% Activity Remaining at 0.5 µM, CAMKK1", "setting": "[3]", "result": 86.8, "unit": "%"}, {"measurement": "% Activity Remaining at 0.5 µM, CAMKK2", "setting": "[4]", "result": 33.3, "unit": "%"}, {"measurement": "ΔTm at 12 µM", "setting": "[5]", "result": 9.7, "unit": "°C"}]}, {"smiles": "COCCOc1ccc2c(c1)ncn2-c1ccc2cccc(N3CCC(N)CC3)c2n1", "note": "[CP-673451]", "values": [{"measurement": "Kd", "setting": "[6]; ITC KD, serial integrations of two independent experiments", "result": 2, "unit": "nM"}, {"measurement": "Kd", "setting": "[6]; KD Run 1, individual ITC experiment, run 1", "result": 2.6, "unit": "nM"}, {"measurement": "Kd", "setting": "[6]; KD Run 2, individual ITC experiment, run 2", "result": 1.5, "unit": "nM"}, {"measurement": "ΔG Run 1", "setting": "[6]; [9]", "result": -11.5, "unit": "kcal/mol"}, {"measurement": "ΔH Run 1", "setting": "[6]; [9]", "result": -13.2, "unit": "kcal/mol"}, {"measurement": "ΔG Run 2", "setting": "[6]; [10]", "result": -11.8, "unit": "kcal/mol"}, {"measurement": "ΔH Run 2", "setting": "[6]; [10]", "result": -13, "unit": "kcal/mol"}, {"measurement": "ΔTm at 10 µM", "setting": "[7]", "result": 10, "unit": "°C"}, {"measurement": "IC50", "setting": "[1]", "result": 19, "unit": "nM"}, {"measurement": "fold more active towards CAMKK2-FL than CAMKK1-FL", "setting": "[1]; from IC50 values of Table 1", "result": "~ 10 fold"}, {"measurement": "IC50", "setting": "[2]", "result": 122, "unit": "nM"}]}, {"smiles": "O=C(O)c1ccc2c3c1cccc3c(=O)n1c3ccccc3nc21", "note": "[STO-609]", "values": [{"measurement": "IC50", "setting": "[8]", "result": "< 250", "unit": "nM"}]}, {"smiles": "CN[C@@H]1C[C@H]2O[C@@](C)([C@@H]1OC)n1c3ccccc3c3c4c(c5c6ccccc6n2c5c31)C(=O)NC4", "note": "[Staurosporine]", "values": [{"measurement": "% Activity Remaining at 0.5 µM, CAMKK1", "setting": "[3]", "result": -3.13, "unit": "%"}, {"measurement": "% Activity Remaining at 0.5 µM, CAMKK2", "setting": "[4]", "result": 0.24, "unit": "%"}]}]}
